# Measurements as given in PubChem BioAssay (NCI).
#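 Following 48 hours of exposure in 96-well plates, responses at five concentrations were used to interpolate endpoints linearly. GI50 is the concentration that inhibits growth by half. Definition used: TGI = concentration required for complete inhibition of growth.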
# How the values were obtained:
# Assay in all cases: NCI tumour cell line growth inhibition, 48 h
# [1] = system: BT-549 breast
# [2] = system: T-47D breast
# [3] = system: U251 CNS
# [4] = system: IGROV1 ovarian
# [5] = system: HOP-62 NSCLC
# [6] = system: ACHN renal
# [7] = system: SK-OV-3 ovarian
# [8] = system: A549 NSCLC
# [9] = system: COLO 205 colon
# [10] = system: NCI-H522 lung
# [11] = system: MALME-3M melanoma
# [12] = system: OVCAR-4 ovarian
# [13] = system: UACC-257 melanoma
# [14] = system: SNB-75 CNS
# [15] = system: OVCAR-3 ovarian
# [16] = system: KM12 colon
# [17] = system: HS 578T breast
# [18] = system: SK-MEL-5 melanoma
# [19] = system: PC-3 prostate
# [20] = system: SF-539 CNS
# [21] = system: RPMI-8226 leukemia
# [22] = system: OVCAR-8 ovarian
# [23] = system: HCT-15 colon
# [24] = system: SK-MEL-28 melanoma
# [25] = system: HOP-92 NSCLC
# [26] = system: SR leukemia
# [27] = system: UACC-62 melanoma
# [28] = system: HCC-2998 colon
# [29] = system: EKVX NSCLC
# [30] = system: SF-268 CNS
# [31] = system: CCRF-CEM leukemia
# [32] = system: HCT-116 colon
# [33] = system: UO-31 renal
# [34] = system: OVCAR-5 ovarian
# [35] = system: RXF 393 renal
# [36] = system: MCF7 breast
# [37] = system: SW-620 colon
# [38] = system: MOLT-4 leukemia
# [39] = system: SNB-19 CNS
# [40] = system: NCI-H460 lung
# [41] = system: TK-10 renal
# [42] = system: MDA-MB-435
# [43] = system: DU-145 prostate
# [44] = system: SK-MEL-2 melanoma
# [45] = system: HL-60(TB) leukemia
# [46] = system: LOX IMVI melanoma
# [47] = system: M14 melanoma
# [48] = system: MDA-MB-231 breast
# [49] = system: SF-295 CNS
# [50] = system: HT29 colon
# [51] = system: K-562 leukemia
# [52] = system: NCI-H226 lung
# [53] = system: NCI/ADR-RES ovarian
# [54] = system: NCI-H23 lung
# [55] = system: A498 renal
# [56] = system: SN12C renal
# [57] = system: 786-0 renal
structure (smiles),measurement,setting,value
CC(=O)OC[C@]1(C)C=C2C(=O)[C@](C)(O)C3(CC3)C(C)=C2[C@H]1OC(=O)N(C)CCN(C)C(=O)OC(C)(C)C,GI50,[1],898 nM
same,TGI,[1],3130 nM
same,GI50,[2],858 nM
same,TGI,[2],9640 nM
same,GI50,[3],1110 nM
same,TGI,[3],> 33300 nM
same,GI50,[4],732 nM
same,TGI,[4],3900 nM
same,GI50,[5],1010 nM
same,TGI,[5],3790 nM
same,GI50,[6],947 nM
same,TGI,[6],4200 nM
same,GI50,[7],1180 nM
same,TGI,[7],5330 nM
same,GI50,[8],1360 nM
same,TGI,[8],31100 nM
same,GI50,[9],744 nM
same,TGI,[9],2580 nM
same,GI50,[10],668 nM
same,TGI,[10],1620 nM
same,GI50,[11],784 nM
same,TGI,[11],2270 nM
same,GI50,[12],797 nM
same,TGI,[12],2720 nM
same,GI50,[13],1820 nM
same,TGI,[13],13800 nM
same,GI50,[14],1870 nM
same,TGI,[14],8110 nM
same,GI50,[15],1060 nM
same,TGI,[15],4050 nM
same,GI50,[16],1350 nM
same,TGI,[16],30700 nM
same,GI50,[17],2170 nM
same,TGI,[17],14900 nM
same,GI50,[18],630 nM
same,TGI,[18],1400 nM
same,GI50,[19],1120 nM
same,TGI,[19],6510 nM
same,GI50,[20],816 nM
same,TGI,[20],2240 nM
same,GI50,[21],2270 nM
same,TGI,[21],19100 nM
same,GI50,[22],1050 nM
same,TGI,[22],32500 nM
same,GI50,[23],889 nM
same,TGI,[23],> 33300 nM
same,GI50,[24],1200 nM
same,TGI,[24],4690 nM
same,GI50,[25],1080 nM
same,TGI,[25],3020 nM
same,GI50,[26],961 nM
same,TGI,[26],> 33300 nM
same,GI50,[27],728 nM
same,TGI,[27],1610 nM
same,GI50,[28],1080 nM
same,TGI,[28],3740 nM
same,GI50,[29],1700 nM
same,TGI,[29],10700 nM
same,GI50,[30],1170 nM
same,TGI,[30],8570 nM
same,GI50,[31],1440 nM
same,TGI,[31],> 33300 nM
same,GI50,[32],904 nM
same,TGI,[32],> 33300 nM
same,GI50,[33],732 nM
same,TGI,[33],2230 nM
same,GI50,[34],1090 nM
same,TGI,[34],7180 nM
same,GI50,[35],581 nM
same,TGI,[35],1320 nM
same,GI50,[36],652 nM
same,TGI,[36],> 33300 nM
same,GI50,[37],896 nM
same,TGI,[37],> 33300 nM
same,GI50,[38],1550 nM
same,TGI,[38],> 33300 nM
same,GI50,[39],1190 nM
same,TGI,[39],> 33300 nM
same,GI50,[40],833 nM
same,TGI,[40],4190 nM
same,GI50,[41],1370 nM
same,TGI,[41],6870 nM
same,GI50,[42],809 nM
same,TGI,[42],2350 nM
same,GI50,[43],850 nM
same,TGI,[43],20900 nM
same,GI50,[44],695 nM
same,TGI,[44],1420 nM
same,GI50,[45],949 nM
same,TGI,[45],> 33300 nM
same,GI50,[46],1040 nM
same,TGI,[46],7180 nM
same,GI50,[47],788 nM
same,TGI,[47],2400 nM
same,GI50,[48],1110 nM
same,TGI,[48],4720 nM
same,GI50,[49],926 nM
same,TGI,[49],4880 nM
same,GI50,[50],612 nM
same,TGI,[50],3260 nM
same,GI50,[51],1400 nM
same,TGI,[51],> 33300 nM
same,GI50,[52],9010 nM
same,TGI,[52],25100 nM
same,GI50,[53],812 nM
same,TGI,[53],2550 nM
same,GI50,[54],651 nM
same,TGI,[54],1910 nM
same,GI50,[55],1300 nM
same,TGI,[55],4830 nM
same,GI50,[56],1220 nM
same,TGI,[56],7830 nM
same,GI50,[57],938 nM
same,TGI,[57],2800 nM
